Laboratory results from patent US20060105967A1, “Flavone derivatives as TNFalpha inhibitors or antagonists” (Advanced Gene Technology, Corp., priority 2004, published 2006).

Legend:
[1] = tested on: rats with collagen-induced arthritis; experiment: Anti-inflammatory effect on rats with collagen-induced arthritis; type: in vivo, rat; settings: for decreased percentage of edema: IP
Text: SD rats of SPF grade were supplied from BioLasco. Prior to performing the study, the animals were accommodated for 4 days after being received. Weighing, blood sampling, measuring the paw volumes and other related records for each animal were established. The rats were immunized and boosted with bovine collagen II-EFA (Incomplete Freund's Adjuvant, from Sigma) to induce arthritis (CIA). The CIA rats were grouped into 6 groups and daily injected with the drug candidates (myricitrin and quercetin-3-D-glucoside respectively). Dexamethasone (0.2 mg) was used as a positive control and 5% ethanol as a negative control. Treatment period was 7 days. Body weight and paw volumes were measured and blood sampling were collected at day 0, 3, 6, 10 and 14.
Six days after the final dosing, all the animals were sacrificed. The affected hind limbs were removed for histological assessment. The parameters of body weights and paw volumes were measured and compared for before, during and after treatment with drug candidates.

TNFα = target: T1, TNFα (Homo sapiens, UniProt P01375); experiment: L929 cell proliferation/cytotoxicity assay, TNFα activity assay; type: cell-based
T1 construct: purchased
T1 sequence (P01375 77-233 limits assumed, species assumed): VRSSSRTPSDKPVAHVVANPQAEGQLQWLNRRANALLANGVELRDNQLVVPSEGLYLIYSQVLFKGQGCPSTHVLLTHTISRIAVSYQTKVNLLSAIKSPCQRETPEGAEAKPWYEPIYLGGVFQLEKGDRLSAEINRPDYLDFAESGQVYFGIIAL
Experimental: (§1) L929 cells were cultured in Eagle's Minimal Essential Medium (MEM) containing 10% equine serum, 1% P/S and 1% non-essential amino acid. Confluent L929 cells were washed with 2 ml PBS (phosphate-buffered saline) solution and then trypsinized with 1 ml 1×trypsin, followed by resuspending in complete medium. Two hundred microliter of cell suspension was aspirated for cell density counting. […]. Add 100 μl of cell suspension to each well in 96-well flat-bottomed microtitre plates and incubated for 24 hrs in 5% CO2 atmosphere at 37° C. incubator.
Crude herbal extracts were resuspended in 1×PBS and sterilized with 0.22 μm filters. Varying concentrations of herbal extract were incubated for 1 hr with equal volume of commercial TNFα 0.2 ng/ml. Before the end of the 1 hr pre-incubation, removing the medium from the 24 hr incubated 96-well plate, and added a 50 μl fresh medium containing 4 μg/ml of Actinomycin D into the 96-well plate. Transferred the 50 μl of pre-incubated mixture of herbal extraction and TNFα to the 96-well plate with the medium containing Act D to give the final concentration of Act D (2 μg/ml), TNFα(0.1 ng/ml). […]
The same samples as those for TNFα activity assay were added to the 96-well plate with the medium containing Act D to give the final concentration of Act D 2 μg/ml. […] Read with ELISA (enzyme-linked immunosorbent assay) reader at O.D (optical density) 490/630 nm. […]

L929 cells = experiment: Cytotoxicity in L929 cells (XTT); type: cell-based; settings: Act D 2 μg/ml, 24 hrs
Experimental: as §1
The same samples as those for TNFα activity assay were added to the 96-well plate with the medium containing Act D to give the final concentration of Act D 2 μg/ml. Mixed well by gently shaking and then incubated for 24 hrs in 5% CO2 atmosphere at 37° C. incubator. 50 μl XTT mixture (XTT−1: XTT−2=50:1) was added to each well, and incubated in a CO2 incubator for 4 hrs. Read with ELISA (enzyme-linked immunosorbent assay) reader at O.D (optical density) 490/630 nm. […]. Quercitrin and Myricitrin Identification (1) Thin-Layer Chromatography

[2] = CIA rats, 3rd day after treatment stopped (T4)
[3] = CIA rats, 7th day after treatment stopped (T5)

Row | Compound | decreased percentage of edema [1, 2] [%] | decreased percentage of edema [1, 3] [%] | IC50 (TNFα) [µM] | histopathological changes of joint ([1]; CIA rats treated (IP), hind limbs removed six days after final dosing) | decreased percentage of edema volumes for hind paws ([1]; CIA rats, daily injection (IP), treatment period / day 6 of treatment (T3), vs non-treatment paw volume) [%] | cell cytotoxicity (L929 cells)
1 | C[C@@H]1C[C@H]2[C@@H]3CCC4=CC(=O)C=C[C@]4(C)[C@@]3(F)[C@@H](O)C[C@]2(C)[C@@]1(O)C(=O)CO [dexamethasone, reference compound] | 28.21 | 29.97 | – | – | – | –
2 | O=c1c(O[C@@H]2O[C@H](CO)[C@@H](O)[C@H](O)[C@H]2O)c(-c2ccc(O)c(O)c2)oc2cc(O)cc(O)c12 [quercetin-3-D-glucoside] | 24.93 | 80.47 | 95.7 | proliferation of synovial ling cell and infiltration of lymphocytes was shown | 8.59 | –
3 | C[C@@H]1O[C@@H](Oc2c(-c3ccc(O)c(O)c3)oc3cc(O)cc(O)c3c2=O)[C@H](O)[C@H](O)[C@H]1O [quercitrin] | – | – | 161 | – | – | without cell cytotoxicity
